# Results reported in patent US20150005269A1, “Treatment of Heart Failure and Sudden Cardiac Death” (Rhode Island Hospital, priority 2012, published 2015).
# Test system: SERCA2
# Test: SERCA2 protein level by Western blot in cultured neonatal rabbit ventricular cardiomyocytes
# Type: cell-based
# Conditions: cultured neonatal rabbit ventricular cardiomyocytes (NRbVCM), 50 nM RU486 for 48 hours, normalized against GAPDH
# Description: Protein level of SERCA2 was analyzed by western blots. All measurements were normalized against GAPDH. Bar graphs represent the averages of three independent experiments plus S.D. in arbitrary unit. * p<0.05. […] Ventricular cardiomyocytes were isolated in neonatal wild type NZW rabbits (3-5 days old, 70-110 g) with enzymatic techniques. The hearts were removed from euthanized rabbits and perfused for 5 to 7 minutes with a free solution containing 140 mM NaCl, 4.4 mM KCl, 1.5 mM MgCl2, 0.33 mM NaH2PO4, 16 mM taurine, 5 mM HEPES, 5 mM pyruvic acid, and 7.5 mM glucose. Subsequently, the hearts were perfused for 10 to 15 minutes with the same solution to which 0.3 mg/ml collagenase was added. The whole ventricles were cut off and minced, and the cells were dispersed in a solution containing 45 mM KCl, 65 mM K-glutamate, 3 mM MgSO4, 15 mM KH2PO4, 16 mM taurine, 10 mM HEPES, 0.5 mM EDTA, and 10 mM glucose (pH 7.3). The cell suspension was filtered through a 100-pm cell strainer and kept at room temperature for one hour. Thereafter, the cells were gradually recovered with MEM, in which Ca^2+ concentration was increased from 100 μM, 500 μM, 1000 μM and 1800 μM. Every well of six-well plate was seed one million cells, cultured in DMEM (Lonza 12-[MUT],) with 7% FBS and 100 μM of BrdU. Medium was changed every 24 to 48 hours. […] The SERCA2 is detected by anti-SERCA2 antibody. […]
smiles,measurement,value
"CC#C[C@]1(O)CC[C@H]2[C@@H]3CCC4=CC(=O)CCC4=C3[C@@H](c3ccc(N(C)C)cc3)C[C@@]21C [RU486, Mifepristone]",increase of the expression of SERCA2 polypeptides,60%
